Data as given in article PMC5233616, “Structural and functional analyses of human DDX41 DEAD domain” (Protein & Cell, 2016).

What was measured:
hDDX41 DEAD domain [1] = target: T1, hDDX41 DEAD domain (Homo sapiens, UniProt Q9UJV9); experiment: thermal shift assay; type: binding; details: unliganded Tm 41 °C
T1 construct: gene DDX41; isolated DEAD domain (domain 1; motifs Q to III); monomer; full length is 1-622

hDDX41 DEAD domain [2] = target: T1, hDDX41 DEAD domain; experiment: isothermal titration calorimetry; details: read-out: binding affinity

T1 sequence (Q9UJV9 155-407 limits assumed): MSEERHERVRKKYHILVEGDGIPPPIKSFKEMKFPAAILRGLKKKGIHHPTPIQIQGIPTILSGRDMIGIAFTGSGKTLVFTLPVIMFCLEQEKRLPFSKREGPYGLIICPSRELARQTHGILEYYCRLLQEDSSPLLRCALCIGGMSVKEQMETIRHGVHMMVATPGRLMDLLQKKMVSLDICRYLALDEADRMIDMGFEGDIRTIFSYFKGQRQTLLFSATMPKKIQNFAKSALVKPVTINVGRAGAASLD

Row | Tm increase (hDDX41 DEAD domain [1]) [°C] | Kd (hDDX41 DEAD domain [2]) [µM] | Compound
1 | 2.2 | 31 | Nc1ncnc2c1ncn2[C@@H]1O[C@H](COP(=O)(O)OP(=O)(O)O)[C@@H](O)[C@H]1O [ADP]
2 | 3.9 | 61 | Nc1ncnc2c1ncn2[C@@H]1O[C@H](COP(=O)(O)O)[C@@H](O)[C@H]1O [AMP]
